{"source": "patent US12128040B2", "about": "“Selective estrogen receptor degraders” (Eli Lilly and Company, priority 2018, dated 2024)", "key": {"[1]": {"system": "Y537N mutant ERα receptor", "assay": "PRα inhibition (ERα functional antagonism) cell assay in MCF7-ESR1 Y537N 682 CRISPR cells", "assay_type": "cell-based", "settings": "Homo sapiens; MCF7-ESR1 Y537N 682 cells, 72 hours, n=14; read-out: Relative IC50 (nM), PRα inhibition", "excerpt": "The purpose of the following PRα inhibition (ERα functional antagonism) cell assay is to determine the antagonistic activity of a test compound against the Y537N mutant ERα receptor. An antagonist in this assay is expected to block the function of the ERα receptor.\nCulture MCF7-ESR1 Y537N-682 (generated by CRISPR/Cas9 gene editing of ESR1 gene in MCF7 cells, clone #682) in DMEM media supplemented with 10% FBS and 1% penicillin/streptomycin antibiotics and plate the cells (prior to becoming 70% confluent) in 384-well flat-bottom plates at a density of 4,000 cells per well in DMEM phenol red free media 10% FBS (20 μL volume) (charcoal stripped). Incubate the cells overnight in a cell culture incubator (5% CO2, 95% relative humidity and 37° C.) and allow the cells to attach to the plate. The following day dose the cells with the test compound. Use an Echo 555 acoustic dispenser to prepare compound serial dilutions (1:3) in a range from 6 μM to 0.0003 μM. […]\nThe following day, wash the cells with PBS […] (2×20 μL) and incubate with secondary antibody (20 μL/well) (1:1000 dilution, Goat anti-rabbit IgM ALEXA FLUOR™ 488) in PBS 1% BSA for 105 minutes at room temperature. […] Scan the plates with ACUMEN EXPLORER™ [Laser-scanning fluorescence microplate cytometer manufactured by TTP LABTECH LTD] to measure progesterone receptor alpha. […]"}, "MCF7 ESR1 wild type": {"system": "MCF7 ESR1 wild type", "assay": "Cell proliferation assay in MCF7", "assay_type": "cell-based", "settings": "Homo sapiens, seven days, n=2, read-out: Relative IC50 (nM), cell proliferation", "excerpt": "The purpose of the following cell proliferation assays generally is to detect whether a test compound has effects on cell proliferation, cell viability, and cytotoxicity in response to treatment in cell culture experiments. Cell proliferation is monitored by monitoring the number of cells over time and the […] assay used allows continuous measurement of cell viability over time.\nSeed MCF7 (purchased from ATCC HTB-22) cells at a density of 2,000 cells per well in DMEM phenol red free media 10% FBS (20 μL volume) (charcoal stripped) into a clear bottom 384-well cell culture plate. […] Scan the plates with ACUMEN EXPLORER™ [Laser-scanning fluorescence microplate cytometer manufactured by TTP LABTECH LTD]. The MCF-7 cell line grows forming aggregates, cell number as number of objects may not be able to be used as readout; so the cell number may be evaluated through estimated number of cells (calculated through the area parameter (ratio of total area of the total cells population (a designated range of peak intensity of FL-1 (PI) and the mean area of the single cells population (defined by perimeter)). Determine the IC50 by curve fitting to a four parameter logistic for each output using GENE DATA™."}}}
{"smiles": "O=C(c1ccc(OCCN2CC(CF)C2)cc1)c1c(-c2ccc(C(F)(F)F)cc2F)cnc2cc(O)ccc12", "note": "[Example 1, (4-{2-[3-(Fluoromethyl)azetidin-1-yl]ethoxy}phenyl){3-[2-fluoro-4-(trifluoromethyl)phenyl]-7-hydroxyquinolin-4-yl}methanone]", "values": [{"measurement": "IC50", "setting": "[1]", "value": "7.6 ± 4.8", "unit": "nM"}, {"measurement": "IC50", "setting": "MCF7 ESR1 wild type", "value": "9.24 ± 1.74", "unit": "nM"}]}
